Our source for the IC50 values is patent publication US20210198277A1, “AMINE-SUBSTITUTED ARYL OR HETEROARYL COMPOUNDS” (Epizyme, Inc., priority 2016, published 2021).

Each structure is given as a SMILES string.

One assay has as its target T1, human EHMT2 913-1193 (Homo sapiens, UniProt Q96KQ7).
T1 construct: recombinant purified human EHMT2 913-1193, Viva; purchased Viva
T1 sequence (Q96KQ7 913-1193): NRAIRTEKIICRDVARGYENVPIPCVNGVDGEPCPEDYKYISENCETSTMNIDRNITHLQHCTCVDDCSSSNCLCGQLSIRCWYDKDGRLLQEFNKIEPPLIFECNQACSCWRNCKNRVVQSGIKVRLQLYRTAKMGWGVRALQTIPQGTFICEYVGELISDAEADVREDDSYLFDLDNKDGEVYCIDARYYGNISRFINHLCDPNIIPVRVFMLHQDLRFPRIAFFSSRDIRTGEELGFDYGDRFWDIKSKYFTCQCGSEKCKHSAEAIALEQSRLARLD
The assay is described as follows: EHMT2 enzyme assay on histone peptide substrate (EHMT2 PEP). Format: biochemical. Particulars: Table II; read-out: EHMT2 PEP (IC50 μM). In short, it runs like this: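 10-pt 3-fold series, 50 μM top final, 2% DMSO; 30 min preinc w/ 0.031 nM enzyme; pH 7.5 Bicine/TCEP buffer; ^3H-SAM + biotin-histone peptide, 60 min RT; SAM quench; streptavidin Flashplate capture, TopCount.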

In another assay the target is T2, EHMT1 (Homo sapiens, UniProt Q9H9B1).
T2 sequence (Q9H9B1 1-1298): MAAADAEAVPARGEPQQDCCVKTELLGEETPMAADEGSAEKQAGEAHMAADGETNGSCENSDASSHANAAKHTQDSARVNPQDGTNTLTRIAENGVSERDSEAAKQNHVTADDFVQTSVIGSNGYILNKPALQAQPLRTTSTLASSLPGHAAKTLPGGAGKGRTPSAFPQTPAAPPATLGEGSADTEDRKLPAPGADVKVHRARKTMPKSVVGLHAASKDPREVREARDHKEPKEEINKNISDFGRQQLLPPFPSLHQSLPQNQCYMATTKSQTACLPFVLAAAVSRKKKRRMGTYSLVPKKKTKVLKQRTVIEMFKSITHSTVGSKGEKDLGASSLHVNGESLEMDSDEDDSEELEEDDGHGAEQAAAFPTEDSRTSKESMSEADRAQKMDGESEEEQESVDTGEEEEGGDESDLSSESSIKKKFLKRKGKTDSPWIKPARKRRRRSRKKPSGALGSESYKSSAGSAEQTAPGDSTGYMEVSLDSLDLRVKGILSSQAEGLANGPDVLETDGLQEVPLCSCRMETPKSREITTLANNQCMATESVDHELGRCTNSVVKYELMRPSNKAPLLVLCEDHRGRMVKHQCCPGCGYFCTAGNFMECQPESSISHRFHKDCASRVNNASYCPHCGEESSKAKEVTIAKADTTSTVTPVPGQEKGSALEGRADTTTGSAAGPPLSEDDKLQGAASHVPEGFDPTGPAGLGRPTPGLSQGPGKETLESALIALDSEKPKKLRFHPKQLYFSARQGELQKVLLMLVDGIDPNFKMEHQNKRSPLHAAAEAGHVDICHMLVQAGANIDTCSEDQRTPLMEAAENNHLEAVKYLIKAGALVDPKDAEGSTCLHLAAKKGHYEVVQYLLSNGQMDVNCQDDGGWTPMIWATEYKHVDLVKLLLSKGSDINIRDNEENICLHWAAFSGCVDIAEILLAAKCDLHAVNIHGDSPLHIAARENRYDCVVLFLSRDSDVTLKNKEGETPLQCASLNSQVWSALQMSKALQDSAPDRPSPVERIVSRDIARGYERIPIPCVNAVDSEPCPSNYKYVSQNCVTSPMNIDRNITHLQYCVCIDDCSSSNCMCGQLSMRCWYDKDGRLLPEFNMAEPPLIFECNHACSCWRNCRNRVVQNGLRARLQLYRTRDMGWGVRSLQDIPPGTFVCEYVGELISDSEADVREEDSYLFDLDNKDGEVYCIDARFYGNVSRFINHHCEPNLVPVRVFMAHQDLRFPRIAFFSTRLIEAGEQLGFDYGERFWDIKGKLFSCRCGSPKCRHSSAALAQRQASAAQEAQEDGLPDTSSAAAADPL
In words: EHMT1 enzyme assay on peptide substrate (EHMT1 PEP). The format is biochemical. The conditions noted are these: Table II; read-out: EHMT1 PEP (IC50 μM).

A word on the IC50: it is the concentration at which inhibition is half-maximal. Take `COc1ccc(Nc2nccc(NCCn3cccn3)n2)cc1OCCCN1CCCC1` [Compound 193]: the IC50 at human EHMT2 913-1193 and at EHMT1 was 0.1 to 1 µM throughout.

As for `COc1ccc(Nc2cncc(NCC3CCN(C(C)=O)CC3)c2)cc1OCCCN1CCCC1` [Compound 184], the IC50 on human EHMT2 913-1193 and on EHMT1 was greater than 10 µM in each case.

As for `COc1ccc(Nc2nccc(N(C)CC3CCOCC3)n2)cc1OCCCN1CCCC1` [Compound 146], the IC50 on human EHMT2 913-1193 and on EHMT1 was greater than 10 µM in each case.

Consider `COc1ccc(Nc2nccc(N(C)Cc3cccnc3)n2)cc1OCCCN1CCCC1` [Compound 135], for which the IC50 on human EHMT2 913-1193 and on EHMT1 was 1 to 10 µM throughout.

Regarding `COc1ccc(Nc2nccc(N3CCCOCC3)n2)cc1OCCCN1CCCC1` [Compound 151], the IC50 at human EHMT2 913-1193 and on EHMT1 was greater than 10 µM throughout.

For `COc1ccc(Nc2nccc(C)n2)cc1OCCCN1CCCC1` [Compound 174], the IC50 at human EHMT2 913-1193 and on EHMT1 was greater than 10 µM each time.

In the case of `COc1ccc(Nc2nccc(NC(C)(C)C)n2)cc1OCCCN1CCCC1` [Compound 6, N^4-(tert-butyl)-N^2-(4-methoxy-3-(3-(pyrrolidin-1-yl)propoxy)phenyl)pyrimidine-2,4-diamine], the IC50 at human EHMT2 913-1193 is less than 0.1 µM; on EHMT1 it was 0.1 to 1 µM.

Consider `COc1ccc(Nc2nc(C)cc(C)n2)cc1OCCCN1CCCC1` [Compound 175], for which the IC50 on human EHMT2 913-1193 and on EHMT1 was greater than 10 µM in each case.

With `COc1ccc(Nc2nccc(NCc3ccc4[nH]ncc4c3)n2)cc1OCCCN1CCCC1` [Compound 164], the IC50 at human EHMT2 913-1193 and on EHMT1 was greater than 10 µM throughout.

Turning to `COc1ccc(Nc2nccc(N3CCN(S(C)(=O)=O)CC3)n2)cc1OCCCN1CCCC1` [Compound 162], the IC50 at human EHMT2 913-1193 and on EHMT1 was greater than 10 µM in each case.

Consider `COc1ccc(Nc2ccnc(N(C)CC3CCN(C(C)=O)CC3)c2)cc1OCCCN1CCCC1` [Compound 13, 1-(4-(((4-((4-methoxy-3-(3-(pyrrolidin-1-yl)propoxy)phenyl)amino)pyridin-2-yl)(methyl)amino)methyl)piperidin-1-yl)ethan-1-one], for which the IC50 on human EHMT2 913-1193 and at EHMT1 was greater than 10 µM throughout.

For the compound `COc1ccc(Nc2cc(OCC3CCN(C(C)=O)CC3)ccn2)cc1OCCCN1CCCC1` [Compound 173], the 50% inhibitory concentration (IC50) on human EHMT2 913-1193 and on EHMT1 was 1 to 10 µM each time.

For the compound `COc1ccc(Nc2nccc(NC3CCS(=O)(=O)CC3)n2)cc1OCCCN1CCCC1` [Compound 152], the IC50 on human EHMT2 913-1193 and on EHMT1 was 1 to 10 µM each time.

Consider `COc1ccc(Nc2nccc(CNC(C)=O)n2)cc1OCCCN1CCCC1` [Compound 144], for which the IC50 on human EHMT2 913-1193 and on EHMT1 was greater than 10 µM throughout.

As to `COc1ccc(Nc2cc(CNC3CCOCC3)n(C)n2)cc1OCCCN1CCCC1` [Compound 127], the IC50 on human EHMT2 913-1193 and on EHMT1 was greater than 10 µM throughout.

As for `COc1ccc(Nc2ccnc(OCC3CCN(C(C)=O)CC3)c2)cc1OCCCN1CCCC1` [Compound 157], the IC50 on human EHMT2 913-1193 and on EHMT1 was 1 to 10 µM in each case.

On to `COc1ccc(Nc2nccc(N3CCC(NC(C)=O)CC3)n2)cc1OCCCN1CCCC1` [Compound 161], for which the IC50 on human EHMT2 913-1193 and on EHMT1 was greater than 10 µM in each case.

On to `CNC(=O)c1cnc(Nc2ccc(OC)c(OCCCN3CCCC3)c2)nc1` [Compound 9, 2-((4-methoxy-3-(3-(pyrrolidin-1-yl)propoxy)phenyl)amino)-N-methylpyrimidine-5-carboxamide], for which the IC50 on human EHMT2 913-1193 is 1 to 10 µM; at EHMT1, greater than 10 µM.

As to `COc1ccc(Nc2nccc(N3CCC(C(N)=O)CC3)n2)cc1OCCCN1CCCC1` [Compound 153], the IC50 on human EHMT2 913-1193 and at EHMT1 was 1 to 10 µM throughout.

As to `CNc1nc(Nc2ccc(OC)c(OCCCN3CCCC3)c2)ncc1F` [Compound 187], the IC50 at human EHMT2 913-1193 and at EHMT1 was 1 to 10 µM throughout.

For the compound `COc1ccc(Nc2nccc(-c3c(C)noc3C)n2)cc1OCCCN1CCCC1` [Compound 130], the 50% inhibitory concentration (IC50) on human EHMT2 913-1193 and at EHMT1 was greater than 10 µM throughout.

Take `COc1ccc(Nc2cc(NCC3CCNCC3)ccn2)cc1OCCCN1CCCC1` [Compound 10, N^2-(4-methoxy-3-(3-(pyrrolidin-1-yl)propoxy)phenyl)-N^4-(piperidin-4-ylmethyl)pyridine-2,4-diamine]: the IC50 was less than 0.1 µM at human EHMT2 913-1193 and 0.1 to 1 µM at EHMT1.

`COc1ccc(Nc2nccc(NC3CN(C(C)=O)C3)n2)cc1OCCCN1CCCC1` [Compound 192]: the IC50 at human EHMT2 913-1193 and on EHMT1 was 0.1 to 1 µM in each case.

Take `COc1ccc(Nc2nccc(NC3COC3)n2)cc1OCCCN1CCCC1` [Compound 137]: the IC50 on human EHMT2 913-1193 and at EHMT1 was 1 to 10 µM in each case.

As to `COc1ccc(Nc2nccc(N3CCN(C)C(=O)C3)n2)cc1OCCCN1CCCC1` [Compound 132], the IC50 on human EHMT2 913-1193 and at EHMT1 was greater than 10 µM in each case.

Take `COc1ccc(Nc2nccc(N(C)Cc3ccccn3)n2)cc1OCCCN1CCCC1` [Compound 136]: the IC50 at human EHMT2 913-1193 and on EHMT1 was 1 to 10 µM in each case.

For `COc1ccc(Nc2nccc(N(C)C3CCOCC3)n2)cc1OCCCN1CCCC1` [Compound 142], the IC50 on human EHMT2 913-1193 and at EHMT1 was 1 to 10 µM in each case.

Turning to `COc1ccc(Nc2nccc(N3CCNc4ccccc4C3)n2)cc1OCCCN1CCCC1` [Compound 154], the IC50 at human EHMT2 913-1193 was 1 to 10 µM; at EHMT1 it was greater than 10 µM.

`COc1ccc(Nc2nccc(N(C)CCO)n2)cc1OCCCN1CCCC1` [Compound 150]: the IC50 at human EHMT2 913-1193 lay within 0.1 to 1 µM; at EHMT1 it was 1 to 10 µM.

Consider `COc1ccc(Nc2nccc(NCC3CCN(C(C)=O)CC3)n2)cc1OC(C)CCN1CCCC1` (centres unmarked) [Compound 195], for which the IC50 on human EHMT2 913-1193 and at EHMT1 was 1 to 10 µM in each case.

As to `COc1ccc(Nc2nccc(N3CC(C(=O)N(C)C)C3)n2)cc1OCCCN1CCCC1` [Compound 170], the IC50 at human EHMT2 913-1193 and at EHMT1 was greater than 10 µM in each case.

Take `COc1ccc(Nc2nccc(NCC3CCN(C)CC3)n2)cc1OCCCNc1ccccc1` [Compound 159]: the IC50 on human EHMT2 913-1193 and on EHMT1 was greater than 10 µM each time.

As to `CNc1cc(Nc2ccc(OC)c(OCCCN3CCCC3)c2)cnn1` [Compound 188], the IC50 at human EHMT2 913-1193 and on EHMT1 was 0.1 to 1 µM in each case.

With `COc1ccc(Nc2nccc(N(C)CCCO)n2)cc1OCCCN1CCCC1` [Compound 140], the IC50 on human EHMT2 913-1193 and on EHMT1 was 1 to 10 µM in each case.

On to `COc1ccc(Nc2nc(NCC3CCNCC3)cc(N3CCCC3)n2)cc1OCCCN1CCCC1` [Compound 103], for which the IC50 at human EHMT2 913-1193 and at EHMT1 was 0.1 to 1 µM throughout.

For `COc1ccc(Nc2nccc(N3CCS(=O)(=O)CC3)n2)cc1OCCCN1CCCC1` [Compound 169], the half-maximal inhibitory concentration (IC50) at human EHMT2 913-1193 and at EHMT1 was greater than 10 µM in each case.

Turning to `CNc1cccc(Nc2ccc(OC)c(OCCCN3CCCC3)c2)n1` [Compound 176], the IC50 at human EHMT2 913-1193 and on EHMT1 was greater than 10 µM in each case.

On to `COc1ccc(Nc2nccc(-n3cc(C)cn3)n2)cc1OCCCN1CCCC1` [Compound 180], for which the IC50 on human EHMT2 913-1193 and on EHMT1 was greater than 10 µM throughout.

Turning to `COc1ccc(Nc2nccc(NCCC3CCOCC3)n2)cc1OCCCN1CCCC1` [Compound 178], the IC50 at human EHMT2 913-1193 and on EHMT1 was 0.1 to 1 µM throughout.

For `COc1ccc(Nc2nccc(NCC3CCN(S(C)(=O)=O)CC3)n2)cc1OCCCN1CCCC1` [Compound 199], the IC50 at human EHMT2 913-1193 and at EHMT1 was 0.1 to 1 µM each time.
